Values quoted from earlier work, collected in patent US10024828B2, “Adsorbent and analysis method using same” (Hitachi High-Technologies Corporation, priority 2013, dated 2018).

Conditions: source not stated (calculated or measured value)

For O=c1[nH]cc(F)c(=O)[nH]1 [5-fluorouracil], the “log P (octanol-water partition coefficient)” value (“log P” below) is given as −0.57.

For Nc1ccn([C@@H]2O[C@H](CO)[C@@H](O)C2(F)F)c(=O)n1 [gemcitabine], the “log P” value is given as 0.14.

In the case of CN(Cc1cnc2nc(N)nc(N)c2n1)c1ccc(C(=O)N[C@@H](CCC(=O)O)C(=O)O)cc1 [methotrexate], the “log P” value is given as −0.91.
